Measured values published in ChEMBL document CHEMBL1201862, “PubChem BioAssay data set” (2004).
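Exposure lasted 48 hours, with cells grown in 96-well plates and compounds tested at five concentrations. GI50 is the concentration that inhibits growth by half.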 The source made the active and inactive calls. No stated cut-off is given here; in the data, active = GI50 up to about 1.1 µM and inactive = higher. Where a SMILES comes first, the peptide text is derived from it. [ ]: non-standard residue; d: D form. The star is where a group is joined. ξ: configuration not given here. NMeF = CN[CH](Cc1ccccc1)C(=O)O; ξNMe2Val = CC(C)C(C(=O)*)N(C)C; NMeV = CN[CH](C(=O)O)C(C)C; OtBu = CC(C)(C)O*

Key:
Test in all cases: NCI anticancer screen, dose series, 48 h
HT-29 = system: HT-29
TK-10 = system: TK-10
OVCAR-8 = system: OVCAR-8
OVCAR-4 = system: OVCAR-4
COLO 205 = system: COLO 205
HCC 2998 = system: HCC 2998
SK-OV-3 = system: SK-OV-3
K562 = system: K562
UACC-62 = system: UACC-62
CAKI-1 = system: CAKI-1
HL-60 = system: HL-60
KM-20L2 = system: KM-20L2
786-0 = system: 786-0
A549 = system: A549
M14 = system: M14
SF-268 = system: SF-268
UACC-257 = system: UACC-257

Measured: GI50

CCOC(=O)C1(C(=O)OCC)CC=C(C)CC12C(=O)Nc1ccccc12 (configuration not stated)
inactive: HT-29 > 100 µM | TK-10 > 100 µM | OVCAR-8 > 100 µM | OVCAR-4 > 100 µM | COLO 205 > 100 µM | HCC 2998 > 100 µM | SK-OV-3 > 100 µM | K562 > 100 µM | UACC-62 > 100 µM | CAKI-1 > 100 µM | HL-60 > 100 µM | KM-20L2 > 100 µM | 786-0 > 100 µM | A549 > 100 µM | M14 > 100 µM | SF-268 > 100 µM

N#[N+]c1ccccc1Sc1ccc(Cl)cc1
inactive: UACC-257 > 100 µM | HT-29 > 100 µM | TK-10 > 100 µM | OVCAR-8 > 100 µM | OVCAR-4 > 100 µM | HCC 2998 > 100 µM | SK-OV-3 > 100 µM | K562 75 µM | UACC-62 > 100 µM | CAKI-1 > 100 µM | HL-60 94 µM | KM-20L2 > 100 µM | 786-0 > 100 µM | A549 > 100 µM | M14 > 100 µM

C[C@]12CC(C=O)C(=O)C(O)=C1CC[C@@H]1C2CC[C@@]2(C)C1CC[C@]2(C)O (some centres not stated)
inactive: UACC-257 24.2 µM | HT-29 4.66 µM | TK-10 38.9 µM | OVCAR-8 28.8 µM | OVCAR-4 13.2 µM | COLO 205 18.8 µM | HCC 2998 10.1 µM | SK-OV-3 21.4 µM | K562 25.9 µM | UACC-62 13.8 µM | HL-60 15.8 µM | KM-20L2 22 µM | 786-0 16.3 µM | A549 57.4 µM | M14 16.8 µM | SF-268 25.4 µM

NC(=O)N/N=C(\CC1OC(=O)c2ccccc21)c1ccc([N+](=O)[O-])cc1 (configuration not stated)
inactive: UACC-257 67.3 µM | HT-29 40.6 µM | TK-10 > 100 µM | OVCAR-8 > 10 µM | OVCAR-4 39.5 µM | COLO 205 46.8 µM | HCC 2998 18 µM | K562 > 10 µM | UACC-62 18.4 µM | CAKI-1 23.6 µM | HL-60 26.3 µM | KM-20L2 29.2 µM | 786-0 17.6 µM | A549 38.7 µM | M14 34 µM

C/C(=C1/CCC/C(=C(/C)c2ccccc2)C1=O)c1ccccc1
inactive: UACC-257 25 µM | HT-29 26.4 µM | TK-10 > 100 µM | OVCAR-8 41.7 µM | OVCAR-4 46.3 µM | COLO 205 65.6 µM | HCC 2998 46.3 µM | SK-OV-3 > 100 µM | K562 18.3 µM | UACC-62 37.2 µM | HL-60 10.7 µM | KM-20L2 40.5 µM | 786-0 44.4 µM | A549 31.8 µM | M14 33.3 µM | SF-268 45.7 µM

CCn1c(=O)c2ccccc2n2c(=O)c3cc4ccccc4cc3nc12
inactive: UACC-257 > 100 µM | HT-29 64.4 µM | TK-10 > 100 µM | OVCAR-8 52.2 µM | COLO 205 > 100 µM | HCC 2998 > 100 µM | SK-OV-3 92.7 µM | K562 > 100 µM | UACC-62 > 100 µM | CAKI-1 > 100 µM | HL-60 91.8 µM | KM-20L2 > 100 µM | 786-0 37.3 µM | A549 > 100 µM | M14 > 100 µM | SF-268 65.6 µM

COc1cc2cnc3c4ccccc4ccc3c2cc1OC
inactive: UACC-257 > 100 µM | HT-29 > 100 µM | TK-10 > 100 µM | OVCAR-8 > 100 µM | OVCAR-4 > 100 µM | COLO 205 > 100 µM | HCC 2998 > 100 µM | SK-OV-3 > 100 µM | K562 > 100 µM | UACC-62 > 100 µM | CAKI-1 > 100 µM | KM-20L2 > 100 µM | 786-0 > 100 µM | A549 > 100 µM | M14 > 100 µM | SF-268 > 100 µM

CN(C)/C=N\c1ccn(CCO)c(=O)n1
inactive: UACC-257 > 100 µM | HT-29 > 100 µM | TK-10 > 100 µM | OVCAR-8 > 100 µM | OVCAR-4 > 100 µM | COLO 205 > 100 µM | HCC 2998 > 100 µM | SK-OV-3 > 100 µM | K562 > 100 µM | UACC-62 > 100 µM | HL-60 > 100 µM | KM-20L2 > 100 µM | 786-0 > 100 µM | A549 > 100 µM | M14 > 100 µM | SF-268 > 100 µM

Cc1ccccc1-c1cc(=O)c2cc(C)c(C)c(C(=O)O)c2o1
inactive: UACC-257 > 100 µM | HT-29 > 100 µM | TK-10 > 100 µM | OVCAR-8 > 100 µM | OVCAR-4 > 100 µM | COLO 205 > 100 µM | HCC 2998 > 100 µM | SK-OV-3 > 100 µM | K562 > 100 µM | UACC-62 > 100 µM | CAKI-1 > 100 µM | HL-60 > 100 µM | KM-20L2 > 100 µM | 786-0 > 100 µM | A549 > 100 µM | M14 > 100 µM

O=C(Nc1c(O)[nH]c(=S)[nH]c1=O)c1ccc2ccccc2n1
inactive: UACC-257 > 100 µM | HT-29 > 100 µM | TK-10 > 100 µM | OVCAR-8 > 100 µM | OVCAR-4 > 100 µM | COLO 205 > 100 µM | SK-OV-3 > 100 µM | K562 > 100 µM | UACC-62 > 100 µM | CAKI-1 > 100 µM | HL-60 > 100 µM | KM-20L2 > 100 µM | 786-0 > 100 µM | A549 > 100 µM | M14 > 100 µM | SF-268 > 100 µM

NCCCSCC(=O)O
inactive: UACC-257 > 100 µM | HT-29 > 100 µM | TK-10 > 100 µM | OVCAR-8 > 100 µM | OVCAR-4 > 100 µM | COLO 205 > 100 µM | HCC 2998 > 100 µM | SK-OV-3 > 100 µM | K562 > 100 µM | UACC-62 > 100 µM | CAKI-1 > 100 µM | KM-20L2 > 100 µM | 786-0 > 100 µM | A549 > 100 µM | SF-268 > 100 µM

O=c1cc(-c2ccccc2)oc2cc(OCCCCCCCCCCOc3ccc4c(=O)cc(-c5ccccc5)oc4c3)ccc12
inactive: UACC-257 > 100 µM | HT-29 > 100 µM | OVCAR-8 > 100 µM | OVCAR-4 > 100 µM | COLO 205 > 100 µM | HCC 2998 > 100 µM | SK-OV-3 > 100 µM | K562 > 100 µM | UACC-62 > 100 µM | CAKI-1 > 100 µM | HL-60 > 100 µM | KM-20L2 > 100 µM | 786-0 > 100 µM | A549 > 100 µM | M14 > 100 µM

CC(C)C(C(=O)N(C)C(Cc1ccccc1)C(=O)N(C)C(C(=O)N(C)C(C(=O)N1CCCC1C(=O)OC(C)(C)C)C(C)C)C(C)C)N(C)C (configuration not stated) (ξNMe2Val-[NMeF][NMeV][NMeV]P-OtBu; configuration not given here)
inactive: UACC-257 32.8 µM | HT-29 40.4 µM | TK-10 > 100 µM | OVCAR-8 97.3 µM | COLO 205 35.2 µM | HCC 2998 22.8 µM | K562 31.6 µM | UACC-62 51.9 µM | HL-60 37.2 µM | KM-20L2 20.8 µM | 786-0 52.7 µM | A549 71.1 µM | M14 20 µM | SF-268 63 µM
